Measurements taken from PMC3752901 (Clinical cancer research : an official journal of the …, 2013).
Like-named read-outs stand apart in the source and are kept apart here.

Key:
[1] = Binding to serum proteins; type: in vitro ADME; conditions: male, C57BL/6, mouse
human ABCC4 = target: T1, human ABCC4 (Homo sapiens, UniProt O15439); conditions: 5 min, 1 μM
T1 sequence (O15439 1-1325): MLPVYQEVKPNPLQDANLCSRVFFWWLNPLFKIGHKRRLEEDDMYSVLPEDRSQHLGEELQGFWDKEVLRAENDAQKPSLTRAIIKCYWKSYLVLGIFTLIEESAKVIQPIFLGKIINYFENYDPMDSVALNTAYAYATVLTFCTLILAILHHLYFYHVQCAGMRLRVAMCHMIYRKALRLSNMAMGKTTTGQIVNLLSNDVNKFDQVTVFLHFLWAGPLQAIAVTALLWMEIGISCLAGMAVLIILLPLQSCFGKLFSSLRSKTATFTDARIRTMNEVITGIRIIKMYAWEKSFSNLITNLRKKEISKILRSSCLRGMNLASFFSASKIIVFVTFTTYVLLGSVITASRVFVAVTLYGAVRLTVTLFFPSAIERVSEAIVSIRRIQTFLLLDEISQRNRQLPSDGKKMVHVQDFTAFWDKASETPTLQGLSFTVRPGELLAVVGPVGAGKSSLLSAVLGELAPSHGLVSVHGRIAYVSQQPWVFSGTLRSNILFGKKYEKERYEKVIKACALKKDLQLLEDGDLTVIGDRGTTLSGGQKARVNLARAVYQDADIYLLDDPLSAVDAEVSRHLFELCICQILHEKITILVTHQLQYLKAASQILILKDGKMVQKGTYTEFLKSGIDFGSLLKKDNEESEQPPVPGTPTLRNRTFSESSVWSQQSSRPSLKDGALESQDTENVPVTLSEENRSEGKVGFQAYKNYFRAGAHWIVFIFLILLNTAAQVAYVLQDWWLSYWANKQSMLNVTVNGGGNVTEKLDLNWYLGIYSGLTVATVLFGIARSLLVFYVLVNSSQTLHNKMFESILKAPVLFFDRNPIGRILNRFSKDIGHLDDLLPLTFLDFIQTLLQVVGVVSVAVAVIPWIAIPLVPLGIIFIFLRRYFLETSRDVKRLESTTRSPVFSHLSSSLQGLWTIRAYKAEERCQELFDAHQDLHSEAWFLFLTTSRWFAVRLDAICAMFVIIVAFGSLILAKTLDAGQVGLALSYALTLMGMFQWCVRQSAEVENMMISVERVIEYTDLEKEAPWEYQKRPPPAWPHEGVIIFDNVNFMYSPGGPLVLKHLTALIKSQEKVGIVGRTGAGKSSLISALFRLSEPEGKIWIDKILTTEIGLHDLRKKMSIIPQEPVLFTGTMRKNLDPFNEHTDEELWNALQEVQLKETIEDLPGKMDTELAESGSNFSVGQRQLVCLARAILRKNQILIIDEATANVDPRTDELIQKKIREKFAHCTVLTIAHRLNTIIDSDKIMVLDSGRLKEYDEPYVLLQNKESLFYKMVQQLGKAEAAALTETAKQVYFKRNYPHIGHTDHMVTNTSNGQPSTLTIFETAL

[2] = cited from earlier work
Abcc4 = target: T2, Abcc4 (Mus musculus, UniProt E9Q236); assay: Ex vivo mucosal-to-serosal transport in isolated stomach sacs; type: in vitro ADME; conditions: Abcc4(−/−) vs wildtype mice
T2 sequence (E9Q236 1-1325): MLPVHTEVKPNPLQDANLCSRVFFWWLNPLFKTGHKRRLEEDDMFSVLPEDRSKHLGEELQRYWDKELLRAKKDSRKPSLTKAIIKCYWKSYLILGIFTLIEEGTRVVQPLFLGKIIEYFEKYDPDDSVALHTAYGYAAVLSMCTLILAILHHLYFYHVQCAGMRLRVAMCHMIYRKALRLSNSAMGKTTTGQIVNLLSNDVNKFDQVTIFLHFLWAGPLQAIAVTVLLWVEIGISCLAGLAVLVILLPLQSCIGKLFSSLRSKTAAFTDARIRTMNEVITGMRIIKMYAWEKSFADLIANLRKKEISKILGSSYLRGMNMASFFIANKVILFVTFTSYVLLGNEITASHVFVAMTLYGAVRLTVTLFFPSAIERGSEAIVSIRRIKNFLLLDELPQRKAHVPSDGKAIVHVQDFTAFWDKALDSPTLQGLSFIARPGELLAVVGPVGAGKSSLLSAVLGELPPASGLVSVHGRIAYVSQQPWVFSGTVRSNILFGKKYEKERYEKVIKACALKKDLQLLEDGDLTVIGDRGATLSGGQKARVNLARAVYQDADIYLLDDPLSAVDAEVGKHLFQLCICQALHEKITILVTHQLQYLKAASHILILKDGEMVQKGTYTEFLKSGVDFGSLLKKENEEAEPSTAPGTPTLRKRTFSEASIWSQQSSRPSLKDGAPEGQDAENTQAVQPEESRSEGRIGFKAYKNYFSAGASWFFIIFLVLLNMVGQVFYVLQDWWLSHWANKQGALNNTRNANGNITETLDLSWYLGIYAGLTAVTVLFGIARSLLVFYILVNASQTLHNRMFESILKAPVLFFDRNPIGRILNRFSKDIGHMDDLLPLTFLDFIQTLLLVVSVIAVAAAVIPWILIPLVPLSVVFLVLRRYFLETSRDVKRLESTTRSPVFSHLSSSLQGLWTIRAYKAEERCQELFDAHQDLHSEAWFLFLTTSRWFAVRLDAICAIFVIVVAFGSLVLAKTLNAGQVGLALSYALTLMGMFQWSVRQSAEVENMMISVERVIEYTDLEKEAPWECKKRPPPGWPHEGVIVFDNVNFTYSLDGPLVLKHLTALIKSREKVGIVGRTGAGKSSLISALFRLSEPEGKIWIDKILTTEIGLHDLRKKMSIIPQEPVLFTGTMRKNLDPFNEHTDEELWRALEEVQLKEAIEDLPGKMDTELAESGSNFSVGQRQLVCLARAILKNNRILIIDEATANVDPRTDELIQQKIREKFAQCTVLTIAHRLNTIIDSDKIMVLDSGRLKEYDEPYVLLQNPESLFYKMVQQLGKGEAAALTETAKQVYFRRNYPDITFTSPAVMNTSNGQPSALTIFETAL

fraction unbound ([1]; Abcc4(−/−) mice): 0.0812 ± 0.00493
fraction unbound ([1]; wildtype mice): 0.087 ± 0.0044
accumulation in ABCC4-overexpressing vesicles compared to control vesicles (human ABCC4): 3.0 fold
reduction of drug transport to the serosal side with Abcc4-deficiency (Abcc4): up to 3.9 fold
SMILES: Cc1nc(Nc2ncc(C(=O)Nc3c(C)cccc3Cl)s2)cc(N2CCN(CCO)CC2)n1 [dasatinib, Dasatinib]
coefficient of variation in AUC ([2]; adult patients): > 50%
coefficient of variation in AUC ([2]; pediatric patient population): ≤ 46%
